What was measured:
[1] = biological target: AP2-associated protein kinase 1 (Homo sapiens) (UniProt Q2M2I8); conditions: Compound concentration 1000.0 nM
[2] = tested on: Tyrosine-protein kinase ABL1 (Homo sapiens), P00519 [E255K]; conditions: Compound concentration 1000.0 nM
[3] = tested on: Tyrosine-protein kinase ABL1 (Homo sapiens), P00519 [M351T]; conditions: Compound concentration 1000.0 nM
[4] = tested on: Tyrosine-protein kinase ABL1 (Homo sapiens), P00519 [T315I]; conditions: Compound concentration 1000.0 nM
[5] = biological target: Activin receptor type-2B (Homo sapiens) (UniProt Q13705); conditions: Compound concentration 1000.0 nM
[6] = biological target: BMP-2-inducible protein kinase (Homo sapiens) (UniProt Q9NSY1); conditions: Compound concentration 1000.0 nM
[7] = biological target: Tyrosine-protein kinase Blk (Homo sapiens) (UniProt P51451); conditions: Compound concentration 1000.0 nM
[8] = biological target: Calcium/calmodulin-dependent protein kinase type 1B (Homo sapiens) (UniProt Q6P2M8); conditions: Compound concentration 1000.0 nM
Sequence of Calcium/calmodulin-dependent protein kinase type 1B (Homo sapiens) (Q6P2M8 whole entry): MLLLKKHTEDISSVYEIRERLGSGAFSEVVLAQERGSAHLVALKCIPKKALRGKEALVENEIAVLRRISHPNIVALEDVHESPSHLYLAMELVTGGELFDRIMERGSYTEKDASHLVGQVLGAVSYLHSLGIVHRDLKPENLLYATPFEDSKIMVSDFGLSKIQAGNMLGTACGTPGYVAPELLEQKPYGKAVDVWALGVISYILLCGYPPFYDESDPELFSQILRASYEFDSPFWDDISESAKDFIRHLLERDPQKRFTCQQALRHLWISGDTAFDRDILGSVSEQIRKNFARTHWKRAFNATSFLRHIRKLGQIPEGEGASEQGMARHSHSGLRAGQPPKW

[9] = biological target: Calcium/calmodulin-dependent protein kinase type II subunit beta (Homo sapiens) (UniProt Q13554); conditions: Compound concentration 1000.0 nM
Sequence of Calcium/calmodulin-dependent protein kinase type II subunit beta (Homo sapiens) (Q13554 whole entry): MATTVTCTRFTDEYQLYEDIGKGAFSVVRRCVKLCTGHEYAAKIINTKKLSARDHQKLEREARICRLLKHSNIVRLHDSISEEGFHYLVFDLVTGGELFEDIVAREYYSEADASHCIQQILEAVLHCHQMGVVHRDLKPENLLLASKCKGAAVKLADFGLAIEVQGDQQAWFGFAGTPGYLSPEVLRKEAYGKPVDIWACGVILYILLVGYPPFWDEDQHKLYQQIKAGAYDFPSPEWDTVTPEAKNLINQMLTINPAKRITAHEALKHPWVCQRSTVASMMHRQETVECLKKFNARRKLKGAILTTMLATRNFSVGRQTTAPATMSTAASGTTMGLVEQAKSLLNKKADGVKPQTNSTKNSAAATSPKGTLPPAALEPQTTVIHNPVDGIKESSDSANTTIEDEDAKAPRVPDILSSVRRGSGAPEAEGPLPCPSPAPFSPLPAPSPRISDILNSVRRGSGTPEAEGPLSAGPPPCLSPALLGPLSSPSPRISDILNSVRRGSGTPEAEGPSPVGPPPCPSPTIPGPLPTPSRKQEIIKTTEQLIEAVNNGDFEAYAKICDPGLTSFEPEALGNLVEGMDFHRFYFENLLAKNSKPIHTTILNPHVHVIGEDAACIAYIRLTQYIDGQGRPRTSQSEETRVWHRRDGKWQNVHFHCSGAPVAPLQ

[10] = biological target: Serine/threonine-protein kinase DCLK1 (Homo sapiens) (UniProt O15075); conditions: Compound concentration 1000.0 nM
[11] = biological target: Dual specificity tyrosine-phosphorylation-regulated kinase 1A (Homo sapiens) (UniProt Q13627); conditions: Compound concentration 1000.0 nM
[12] = tested on: Epidermal growth factor receptor (Homo sapiens), P00533 [UNDEFINED MUTATION]; conditions: Compound concentration 1000.0 nM
[13] = biological target: Ephrin type-A receptor 2 (Homo sapiens) (UniProt P29317); conditions: Compound concentration 1000.0 nM
[14] = biological target: Tyrosine-protein kinase Fes/Fps (Homo sapiens) (UniProt P07332); conditions: Compound concentration 1000.0 nM
[15] = biological target: T1, Inhibitor of nuclear factor kappa-B kinase subunit beta (Homo sapiens) (UniProt O14920); conditions: Compound concentration 1000.0 nM
T1 sequence (whole entry): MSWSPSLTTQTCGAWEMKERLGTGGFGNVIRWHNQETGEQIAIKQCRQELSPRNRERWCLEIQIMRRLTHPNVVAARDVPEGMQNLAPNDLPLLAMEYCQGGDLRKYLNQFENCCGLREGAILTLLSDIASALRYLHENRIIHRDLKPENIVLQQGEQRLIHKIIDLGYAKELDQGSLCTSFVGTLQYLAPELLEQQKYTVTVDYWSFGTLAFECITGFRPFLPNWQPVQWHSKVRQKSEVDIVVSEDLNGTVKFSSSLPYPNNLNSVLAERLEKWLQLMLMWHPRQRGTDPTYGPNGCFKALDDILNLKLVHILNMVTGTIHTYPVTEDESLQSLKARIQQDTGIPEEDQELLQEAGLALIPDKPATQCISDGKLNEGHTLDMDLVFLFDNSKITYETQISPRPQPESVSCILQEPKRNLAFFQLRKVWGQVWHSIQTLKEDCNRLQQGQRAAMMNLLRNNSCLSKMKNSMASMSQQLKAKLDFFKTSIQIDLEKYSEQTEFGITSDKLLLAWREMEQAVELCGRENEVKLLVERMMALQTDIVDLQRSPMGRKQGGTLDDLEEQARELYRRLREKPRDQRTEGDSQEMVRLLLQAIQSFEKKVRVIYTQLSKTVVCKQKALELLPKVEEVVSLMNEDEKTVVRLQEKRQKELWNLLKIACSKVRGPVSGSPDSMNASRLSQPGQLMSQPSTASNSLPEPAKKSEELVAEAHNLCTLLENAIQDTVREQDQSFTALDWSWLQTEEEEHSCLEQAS

[16] = biological target: Tyrosine-protein kinase JAK2 (Homo sapiens) (UniProt O60674); conditions: Compound concentration 1000.0 nM
Sequence of Tyrosine-protein kinase JAK2 (Homo sapiens) (O60674 whole entry): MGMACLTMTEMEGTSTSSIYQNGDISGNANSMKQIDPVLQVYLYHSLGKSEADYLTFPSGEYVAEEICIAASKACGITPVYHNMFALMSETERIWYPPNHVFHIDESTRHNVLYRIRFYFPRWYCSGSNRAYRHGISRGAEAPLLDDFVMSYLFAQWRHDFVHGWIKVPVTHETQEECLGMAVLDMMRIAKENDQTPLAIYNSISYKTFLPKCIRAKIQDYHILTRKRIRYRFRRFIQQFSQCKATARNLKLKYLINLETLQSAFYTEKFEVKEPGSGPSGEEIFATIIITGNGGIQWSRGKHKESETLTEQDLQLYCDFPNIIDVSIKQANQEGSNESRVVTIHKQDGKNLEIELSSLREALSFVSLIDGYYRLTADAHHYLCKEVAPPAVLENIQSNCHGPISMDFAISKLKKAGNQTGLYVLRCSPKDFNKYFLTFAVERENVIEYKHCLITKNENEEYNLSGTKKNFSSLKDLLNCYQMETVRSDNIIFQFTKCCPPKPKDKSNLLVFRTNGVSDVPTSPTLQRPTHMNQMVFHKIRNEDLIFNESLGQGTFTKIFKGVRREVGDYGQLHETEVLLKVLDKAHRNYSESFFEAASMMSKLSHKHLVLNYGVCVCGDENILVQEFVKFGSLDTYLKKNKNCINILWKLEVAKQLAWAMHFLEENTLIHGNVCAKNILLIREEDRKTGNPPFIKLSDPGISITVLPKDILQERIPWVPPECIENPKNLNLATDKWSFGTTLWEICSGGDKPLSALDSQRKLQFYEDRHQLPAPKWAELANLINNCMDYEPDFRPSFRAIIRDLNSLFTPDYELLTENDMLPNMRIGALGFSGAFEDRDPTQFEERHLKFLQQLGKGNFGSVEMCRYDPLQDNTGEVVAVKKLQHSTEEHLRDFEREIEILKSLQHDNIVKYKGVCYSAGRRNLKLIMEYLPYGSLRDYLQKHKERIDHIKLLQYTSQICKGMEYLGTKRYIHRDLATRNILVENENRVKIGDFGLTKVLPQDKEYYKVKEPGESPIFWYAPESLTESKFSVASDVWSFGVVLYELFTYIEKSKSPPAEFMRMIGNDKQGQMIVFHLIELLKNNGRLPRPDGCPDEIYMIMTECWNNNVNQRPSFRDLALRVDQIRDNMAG

[17] = biological target: Serine/threonine-protein kinase 10 (Homo sapiens) (UniProt O94804); conditions: Compound concentration 1000.0 nM
Sequence of Serine/threonine-protein kinase 10 (Homo sapiens) (O94804 whole entry, looked up): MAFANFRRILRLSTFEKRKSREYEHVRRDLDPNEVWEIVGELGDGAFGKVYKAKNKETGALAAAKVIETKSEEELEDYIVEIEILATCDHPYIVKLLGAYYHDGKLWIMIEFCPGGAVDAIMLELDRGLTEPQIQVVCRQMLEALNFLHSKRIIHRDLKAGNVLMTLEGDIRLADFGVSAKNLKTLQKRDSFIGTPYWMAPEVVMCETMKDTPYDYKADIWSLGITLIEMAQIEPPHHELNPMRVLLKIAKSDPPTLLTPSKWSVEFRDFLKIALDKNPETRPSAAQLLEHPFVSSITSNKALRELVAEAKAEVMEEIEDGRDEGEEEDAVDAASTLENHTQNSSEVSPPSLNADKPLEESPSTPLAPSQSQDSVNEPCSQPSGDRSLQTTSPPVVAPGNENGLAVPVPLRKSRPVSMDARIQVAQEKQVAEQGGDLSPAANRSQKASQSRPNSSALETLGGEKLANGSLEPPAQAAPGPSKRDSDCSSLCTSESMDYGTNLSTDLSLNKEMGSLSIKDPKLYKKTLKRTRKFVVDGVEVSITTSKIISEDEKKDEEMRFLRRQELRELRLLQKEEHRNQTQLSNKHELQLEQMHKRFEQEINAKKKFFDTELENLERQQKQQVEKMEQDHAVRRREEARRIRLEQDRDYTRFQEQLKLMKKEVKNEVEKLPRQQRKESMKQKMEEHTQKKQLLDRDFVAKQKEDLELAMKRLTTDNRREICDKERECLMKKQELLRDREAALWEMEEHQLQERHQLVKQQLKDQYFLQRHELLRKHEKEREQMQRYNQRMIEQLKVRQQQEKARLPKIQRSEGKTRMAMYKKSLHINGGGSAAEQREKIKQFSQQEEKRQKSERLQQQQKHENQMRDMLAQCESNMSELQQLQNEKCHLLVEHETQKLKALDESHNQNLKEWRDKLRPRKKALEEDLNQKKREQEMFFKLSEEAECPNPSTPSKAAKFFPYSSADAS

[18] = biological target: Leucine-rich repeat serine/threonine-protein kinase 2 (Homo sapiens) (UniProt Q5S007); conditions: Compound concentration 1000.0 nM
[19] = biological target: Mitogen-activated protein kinase kinase kinase 15 (Homo sapiens) (UniProt Q6ZN16); conditions: Compound concentration 1000.0 nM
[20] = biological target: Dual specificity mitogen-activated protein kinase kinase 5 (Homo sapiens) (UniProt Q13163); conditions: Compound concentration 1000.0 nM
[21] = biological target: Serine/threonine-protein kinase PAK 3 (Homo sapiens) (UniProt O75914); conditions: Compound concentration 1000.0 nM
[22] = biological target: cAMP-dependent protein kinase catalytic subunit alpha (Homo sapiens) (UniProt P17612); conditions: Compound concentration 1000.0 nM
[23] = biological target: Interferon-induced, double-stranded RNA-activated protein kinase (Homo sapiens) (UniProt P19525); conditions: Compound concentration 1000.0 nM
Sequence of Interferon-induced, double-stranded RNA-activated protein kinase (Homo sapiens) (P19525 whole entry): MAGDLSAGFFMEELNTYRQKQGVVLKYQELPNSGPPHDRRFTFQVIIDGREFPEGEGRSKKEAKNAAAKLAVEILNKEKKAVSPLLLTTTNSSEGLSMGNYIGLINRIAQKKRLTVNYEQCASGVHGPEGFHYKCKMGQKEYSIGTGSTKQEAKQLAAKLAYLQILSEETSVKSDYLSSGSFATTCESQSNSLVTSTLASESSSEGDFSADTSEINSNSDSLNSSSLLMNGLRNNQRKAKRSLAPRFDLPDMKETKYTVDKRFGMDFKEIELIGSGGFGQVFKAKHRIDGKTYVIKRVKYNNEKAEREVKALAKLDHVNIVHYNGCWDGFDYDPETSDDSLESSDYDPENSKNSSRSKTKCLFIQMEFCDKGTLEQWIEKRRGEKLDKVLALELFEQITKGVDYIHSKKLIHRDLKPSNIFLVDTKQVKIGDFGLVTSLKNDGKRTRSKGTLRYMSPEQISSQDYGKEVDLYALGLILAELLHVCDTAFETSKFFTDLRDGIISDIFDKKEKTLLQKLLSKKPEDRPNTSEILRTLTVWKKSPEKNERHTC

[24] = biological target: Dual serine/threonine and tyrosine protein kinase (Homo sapiens) (UniProt Q6XUX3); conditions: Compound concentration 1000.0 nM
[25] = biological target: T2, Serine/threonine-protein kinase Sgk1 (Homo sapiens) (UniProt O00141); conditions: Compound concentration 1000.0 nM
T2 sequence (whole entry): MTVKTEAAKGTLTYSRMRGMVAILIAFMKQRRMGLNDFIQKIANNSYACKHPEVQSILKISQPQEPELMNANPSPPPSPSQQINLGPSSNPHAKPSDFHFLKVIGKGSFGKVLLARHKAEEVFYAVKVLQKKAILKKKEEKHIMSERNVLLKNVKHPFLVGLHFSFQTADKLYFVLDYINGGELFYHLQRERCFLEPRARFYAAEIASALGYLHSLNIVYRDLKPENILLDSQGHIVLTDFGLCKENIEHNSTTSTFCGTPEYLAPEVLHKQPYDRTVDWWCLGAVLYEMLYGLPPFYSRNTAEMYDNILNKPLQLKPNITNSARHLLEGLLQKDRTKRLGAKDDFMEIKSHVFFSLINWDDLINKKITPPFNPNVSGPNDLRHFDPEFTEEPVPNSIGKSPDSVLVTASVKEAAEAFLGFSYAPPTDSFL

[26] = biological target: SRSF protein kinase 2 (Homo sapiens) (UniProt P78362); conditions: Compound concentration 1000.0 nM
Sequence of SRSF protein kinase 2 (Homo sapiens) (P78362 whole entry, looked up): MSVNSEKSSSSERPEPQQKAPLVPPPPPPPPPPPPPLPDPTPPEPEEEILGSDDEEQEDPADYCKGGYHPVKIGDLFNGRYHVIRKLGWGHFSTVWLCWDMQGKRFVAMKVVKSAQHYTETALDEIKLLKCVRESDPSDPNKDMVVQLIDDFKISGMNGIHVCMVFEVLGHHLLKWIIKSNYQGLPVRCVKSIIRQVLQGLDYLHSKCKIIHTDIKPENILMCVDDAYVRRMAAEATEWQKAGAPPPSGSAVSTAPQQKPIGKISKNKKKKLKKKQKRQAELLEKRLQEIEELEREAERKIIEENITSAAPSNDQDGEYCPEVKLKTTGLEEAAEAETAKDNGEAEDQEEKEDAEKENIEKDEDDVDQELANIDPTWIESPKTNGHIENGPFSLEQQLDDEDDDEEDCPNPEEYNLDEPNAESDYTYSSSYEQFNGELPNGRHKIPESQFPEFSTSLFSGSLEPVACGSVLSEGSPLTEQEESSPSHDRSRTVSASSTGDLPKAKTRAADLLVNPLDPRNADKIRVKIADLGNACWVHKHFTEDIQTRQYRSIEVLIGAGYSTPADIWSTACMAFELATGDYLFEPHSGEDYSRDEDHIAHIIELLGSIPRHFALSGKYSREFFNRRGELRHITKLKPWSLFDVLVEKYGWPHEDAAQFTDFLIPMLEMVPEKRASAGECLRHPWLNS

[27] = biological target: Serine/threonine-protein kinase WNK4 (Homo sapiens) (UniProt Q96J92); conditions: Compound concentration 1000.0 nM
[28] = biological target: 5-hydroxytryptamine receptor 1B (Homo sapiens) (UniProt P28222); conditions: Compound concentration 10.0 uM
Sequence of 5-hydroxytryptamine receptor 1B (Homo sapiens) (P28222 whole entry): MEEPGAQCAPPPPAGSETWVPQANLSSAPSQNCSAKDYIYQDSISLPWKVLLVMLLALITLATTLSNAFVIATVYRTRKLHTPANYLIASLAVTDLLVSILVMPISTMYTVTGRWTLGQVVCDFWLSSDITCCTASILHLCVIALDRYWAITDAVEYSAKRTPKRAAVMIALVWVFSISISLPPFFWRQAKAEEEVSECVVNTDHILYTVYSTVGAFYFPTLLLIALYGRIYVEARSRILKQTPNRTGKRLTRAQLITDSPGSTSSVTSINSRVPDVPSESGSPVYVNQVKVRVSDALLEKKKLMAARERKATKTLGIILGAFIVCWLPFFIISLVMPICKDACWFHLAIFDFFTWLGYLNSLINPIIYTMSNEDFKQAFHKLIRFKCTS

[29] = biological target: 5-hydroxytryptamine receptor 6 (Homo sapiens) (UniProt P50406); conditions: Compound concentration 10.0 uM

CC1=C(C#N)C(c2ccc3c(c2)c(NC(=O)c2ccccc2C)nn3C)C(C#N)=C(C)N1 [BAY-974]
inactive: residual activity [1] 90% | residual activity [2] 63% | residual activity [3] 94% | residual activity [4] 97% | residual activity [5] 100% | residual activity [6] 100% | residual activity [7] 82% | residual activity [8] 85% | residual activity [9] 86% | residual activity [10] 79% | residual activity [11] 97% | residual activity [12] 52% | residual activity [13] 82% | residual activity [14] 84% | residual activity [15] 95% | residual activity [16] 77% | residual activity [17] 68% | residual activity [18] 88% | residual activity [19] 96% | residual activity [20] 79% | residual activity [21] 67% | residual activity [22] 77% | residual activity [23] 100% | residual activity [24] 72% | residual activity [25] 89% | residual activity [26] 88% | residual activity [27] 95% | inhibition [28] 4.12% | inhibition [29] 2.21%

CCc1ccccc1C(=O)Nc1n[nH]c2c(C)c(F)c(C3C(C#N)=C(C)N(C)C(C)=C3C#N)cc12 [BAY-3827]
inactive: residual activity [1] 81% | residual activity [2] 88% | residual activity [3] 99% | residual activity [4] 72% | residual activity [5] 99% | residual activity [6] 100% | residual activity [7] 100% | residual activity [8] 100% | residual activity [9] 73% | residual activity [10] 87% | residual activity [11] 100% | residual activity [12] 62% | residual activity [13] 61% | residual activity [14] 68% | residual activity [15] 94% | residual activity [16] 100% | residual activity [17] 100% | residual activity [18] 100% | residual activity [19] 96% | residual activity [20] 100% | residual activity [21] 86% | residual activity [22] 89% | residual activity [23] 100% | residual activity [24] 95% | residual activity [25] 100% | residual activity [26] 100% | residual activity [27] 94% | inhibition [28] 9.48% | inhibition [29] 9.23%

— ChEMBL document CHEMBL4507319 (2021)
